According to patent US12091411B2, “IRAK degraders and uses thereof” (Kymera Therapeutics, Inc., priority 2022, dated 2024):
Like-named read-outs stand apart in the source and are kept apart here.

Target: T1, IRAK4 (Homo sapiens, UniProt Q9NWZ3)
T1 construct: Degradation of IRAK4 in OCI-LY10 was quantitatively measured using Meso Scale Discovery technology; endogenous in cells; host or cells: OCI-LY10
T1 sequence (Q9NWZ3 1-460): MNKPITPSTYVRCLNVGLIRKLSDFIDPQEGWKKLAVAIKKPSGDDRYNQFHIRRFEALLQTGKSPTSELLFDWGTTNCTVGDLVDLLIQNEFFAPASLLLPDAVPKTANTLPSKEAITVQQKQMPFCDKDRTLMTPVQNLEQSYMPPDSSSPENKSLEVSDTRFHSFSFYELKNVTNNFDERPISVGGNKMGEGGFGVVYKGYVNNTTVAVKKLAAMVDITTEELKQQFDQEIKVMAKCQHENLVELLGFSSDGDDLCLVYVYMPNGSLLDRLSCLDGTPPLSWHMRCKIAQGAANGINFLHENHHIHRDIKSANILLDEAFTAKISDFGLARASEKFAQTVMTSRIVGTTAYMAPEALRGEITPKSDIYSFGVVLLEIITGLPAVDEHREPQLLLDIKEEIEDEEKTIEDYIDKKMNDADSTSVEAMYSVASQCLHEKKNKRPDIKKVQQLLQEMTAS
Experiment: IRAK4 MSD Degradation in OCI-LY10
Assay type: cell-based
Details: OCI-LY10 cells, MSD
Method in brief: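 OCI-LY10 cells exposed to 8-point 1:3 compound series (top 1 to 10 μM) for 4 to 24 h at 37 °C, 5% CO2. Lysate IRAK4 quantified by MSD sandwich immunoassay. DC50 from three-parameter logistic fit, binned A (<0.01 μM) to D (>0.2 μM or not tested).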

[1] = 4 hrs incubation, read-out: IRAK4 degradation in OCI-LY10 at 4 hrs: DC50
[2] = 24 hrs incubation, read-out: IRAK4 degradation in OCI-LY10 at 24 hrs: DC50

| SMILES | DC50 [1] | DC50 [2] |
| --- | --- | --- |
| Cn1c(=O)n(C2CCC(=O)NC2=O)c2cccc(N3CCC(N4CCN([C@H]5CC[C@H](n6cc(NC(=O)c7cnn8ccc(N9C[C@H]%10C[C@@H]9CO%10)nc78)c(C(F)F)n6)CC5)CC4)CC3)c21 (some centres unmarked) [I-203] | > 200 nM | > 200 nM |
| COc1cc2nc([C@H]3CC[C@H](CN4CCC5(CC4)CCN(c4cccc6c4n(C)c(=O)n6C4CCC(=O)NC4=O)CC5)CC3)ccc2cc1NC(=O)c1cncc(C#N)c1 (some centres unmarked) [I-204] | < 10 nM | > 200 nM |
| Cn1c(=O)n(C2CCC(=O)NC2=O)c2cccc(C#CCN3CCN(C[C@H]4CC[C@H](n5cc(NC(=O)c6cccc(C(F)(F)F)n6)c(C(F)F)n5)CC4)CC3)c21 (some centres unmarked) [I-211] | > 200 nM | > 200 nM |
| Cn1c(=O)n(C2CCC(=O)NC2=O)c2cccc(CCCOC3CCN(C[C@H]4CC[C@H](n5cc(NC(=O)c6cccc(C(F)(F)F)n6)c(C(F)F)n5)CC4)CC3)c21 (some centres unmarked) [I-212] | > 200 nM | > 200 nM |
| Cn1c(=O)n(C2CCC(=O)NC2=O)c2cccc(CCCN3CCN(C[C@H]4CC[C@H](n5cc(NC(=O)c6cccc(C(F)(F)F)n6)c(C(F)F)n5)CC4)CC3)c21 (some centres unmarked) [I-213] | > 200 nM | > 200 nM |
| COc1nn([C@H]2CC[C@H](CN3CC4CC3CN4c3cccc4c3n(C)c(=O)n4C3CCC(=O)NC3=O)CC2)cc1NC(=O)c1cnn2cc(N(C)C)cnc12 (some centres unmarked) [I-214] | > 200 nM | > 200 nM |
| CN(C)c1cnc2c(C(=O)Nc3cn([C@H]4CC[C@H](CN5CCN(c6cccc7c6n(C)c(=O)n7C6CCC(=O)NC6=O)CC5)CC4)nc3F)cnn2c1 (some centres unmarked) [I-215] | > 200 nM | > 200 nM |
| Cc1nn([C@H]2CC[C@H](CN3CCN(c4cccc5c4n(C)c(=O)n5C4CCC(=O)NC4=O)CC3)CC2)cc1NC(=O)c1cnn2cc(N(C)C)cnc12 (some centres unmarked) [I-216] | > 200 nM | > 200 nM |
| Cc1nn([C@H]2CC[C@H](CN3CCN(c4ccc5c(c4)n(C)c(=O)n5C4CCC(=O)NC4=O)CC3)CC2)cc1NC(=O)c1cnn2cc(N(C)C)cnc12 (some centres unmarked) [I-217] | > 200 nM | > 200 nM |
| Cn1c(=O)n(C2CCC(=O)NC2=O)c2cccc(C#CCN3CCN(C[C@H]4CC[C@H](n5cc(NC(=O)c6cnn7ccc(C(C)(C)C)nc67)c(C(F)F)n5)CC4)CC3)c21 (some centres unmarked) [I-219] | > 200 nM | > 200 nM |
| COC(C)(C)c1ccn2ncc(C(=O)Nc3cn([C@H]4CC[C@H](CN5CCN(CC#Cc6cccc7c6n(C)c(=O)n7C6CCC(=O)NC6=O)CC5)CC4)nc3C(F)F)c2n1 (some centres unmarked) [I-220] | > 200 nM | > 200 nM |

Further lines, results first:

| DC50 [1] | DC50 [2] | SMILES |
| --- | --- | --- |
| > 200 nM | > 200 nM | Cn1c(=O)n(C2CCC(=O)NC2=O)c2cccc(C#CCOC3CCN(C[C@H]4CC[C@H](c5nc(C(F)F)c(NC(=O)c6cnn7ccc(N8C[C@H]9C[C@@H]8CO9)nc67)s5)CC4)CC3)c21 (some centres unmarked) [I-205] |
| > 200 nM | > 200 nM | Cn1c(=O)n(C2CCC(=O)NC2=O)c2cccc(C#CCOC3CCN(C[C@H]4CC[C@H](c5nc(C(F)F)c(NC(=O)c6cnn7ccc(N8C[C@H]9C[C@@H]8CO9)nc67)o5)CC4)CC3)c21 (some centres unmarked) [I-206] |
| > 200 nM | > 200 nM | Cn1c(=O)n(C2CCC(=O)NC2=O)c2cccc(C#CCOC3CCN(CC4CCN(c5nc(C(F)F)c(NC(=O)c6cnn7ccc(N8C[C@H]9C[C@@H]8CO9)nc67)s5)CC4)CC3)c21 (some centres unmarked) [I-207] |
| > 200 nM | > 200 nM | Cn1c(=O)n(C2CCC(=O)NC2=O)c2cccc(C#CCOC3CCN(CC4CCN(c5nc(C(F)F)c(NC(=O)c6cnn7ccc(N8C[C@H]9C[C@@H]8CO9)nc67)o5)CC4)CC3)c21 (some centres unmarked) [I-208] |
| > 200 nM | > 200 nM | O=C1CCN(c2cccc(C#CCOC3CCN(C[C@H]4CC[C@H](n5cc(NC(=O)c6cnn7ccc(N8C[C@H]9C[C@@H]8CO9)nc67)c(C(F)F)n5)CC4)CC3)c2)C(=O)N1 [I-209] |
| > 200 nM | > 200 nM | Cn1c(=O)n(C2CCC(=O)NC2=O)c2cccc(C#CCOC3CCN(C[C@H]4CC[C@H](n5cc(NC(=O)c6cccc(C(F)(F)F)n6)c(C(F)F)n5)CC4)CC3)c21 (some centres unmarked) [I-210] |
| 100 to 200 nM | > 200 nM | O=C1CCN(c2ccc(C#CCOC3CCN(C[C@H]4CC[C@H](n5cc(NC(=O)c6cnn7ccc(N8C[C@H]9C[C@@H]8CO9)nc67)c(C(F)F)n5)CC4)CC3)cc2)C(=O)N1 [I-218] |
| > 200 nM | 10 to 100 nM | Cn1c(=O)n(C2CCC(=O)NC2=O)c2cccc(C#CCN3CCN(C[C@H]4CC[C@H](n5cc(NC(=O)c6cnn7ccc(N8CCCC8(C)C)nc67)c(C(F)F)n5)CC4)CC3)c21 (some centres unmarked) [I-221] |
